Reference: US11591313B2, “Inhibitors of ectonucleotide pyrophosphatase/phosphodiesterase 1 (ENPP1) and methods of use thereof” (Stingray Therapeutics, Inc., priority 2020, dated 2023)
Where a name gives a salt, the structure may show the parent alone. Read-outs that look alike come from different tables or passages of the source.

Columns and labels:
[1] = biological target: T1, Recombinant Human ENPP-1 Protein (Homo sapiens (Human), UniProt P22413); experiment: ENPP1 Assay (TMP); assay type: biochemical
T1 sequence (P22413 whole entry, looked up): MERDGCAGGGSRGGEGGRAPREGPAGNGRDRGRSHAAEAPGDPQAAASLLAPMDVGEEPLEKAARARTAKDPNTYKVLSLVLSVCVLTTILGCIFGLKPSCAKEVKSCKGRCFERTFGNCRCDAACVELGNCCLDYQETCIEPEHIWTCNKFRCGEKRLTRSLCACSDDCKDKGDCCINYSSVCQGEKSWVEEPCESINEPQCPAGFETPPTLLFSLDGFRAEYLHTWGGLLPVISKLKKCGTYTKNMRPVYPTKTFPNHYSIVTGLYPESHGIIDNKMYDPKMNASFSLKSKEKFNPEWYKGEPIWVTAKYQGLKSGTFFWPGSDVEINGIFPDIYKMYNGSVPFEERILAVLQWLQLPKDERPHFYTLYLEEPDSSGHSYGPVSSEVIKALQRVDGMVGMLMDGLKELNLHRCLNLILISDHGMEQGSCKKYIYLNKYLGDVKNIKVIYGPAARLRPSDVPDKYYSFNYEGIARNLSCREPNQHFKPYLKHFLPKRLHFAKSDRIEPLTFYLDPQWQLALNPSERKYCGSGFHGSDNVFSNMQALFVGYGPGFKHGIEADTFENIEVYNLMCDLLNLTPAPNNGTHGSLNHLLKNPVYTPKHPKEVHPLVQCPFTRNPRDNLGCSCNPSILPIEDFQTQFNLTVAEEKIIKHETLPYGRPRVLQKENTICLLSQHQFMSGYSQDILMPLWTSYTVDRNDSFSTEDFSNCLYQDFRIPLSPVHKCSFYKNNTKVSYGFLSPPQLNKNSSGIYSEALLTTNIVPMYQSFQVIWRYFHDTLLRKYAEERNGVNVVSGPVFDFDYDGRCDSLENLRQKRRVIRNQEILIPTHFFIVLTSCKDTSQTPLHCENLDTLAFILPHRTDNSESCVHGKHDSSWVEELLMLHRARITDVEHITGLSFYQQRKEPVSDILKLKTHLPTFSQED
Experimental: Assay Buffer: 1 mM CaCl2, 0.2 mM ZnCl2, 50 mM Tris, pH 9.0
Enzyme: 1 ng/μL Recombinant Human ENPP-1 Protein (purified in-house)—Assay Cone.: 5 ng/well
A ten point serial dilution of drugs was prepared in 10× in assay buffer with the final assay concentrations starting at 10 μM, 3 μM, 1 μM, 0.3 μM . . . 0 μM. A dilution of DMSO was included as a control. The assay plate was set up as follows with each well in duplicate: 75 μL assay buffer+10 μL ENPP1 inhibitor or DMSO Dilutions+10 μL Substrate+5 μL Enzyme (5 ng). Both the enzyme and substrate were added to opposite sides of the well to ensure that there was no interaction until all wells had both components. The plate was then centrifuged gently for 10 seconds, followed by an incubation at 37° C. for 45 minutes. […] Data was analyzed using GraphPad Prism 8.0.

[2] = biological target: Recombinant Human ENPP-2/Autotaxin (rhENPP-2) (Homo sapiens (Human), UniProt Q13822); experiment: ENPP2 Assay; assay type: biochemical; details: substrate BPNPP, pH 8.5, 37° C. 10 minutes, absorbance at 400 nm
Experimental: Assay Buffer: 50 mM Tris, 10 mM CaCl2, 5 mM MgCl2, 0.02% Brij-35 (v/v), pH 8.5
Substrate: 20 mM Bis(p-Nitrophenyl) Phosphate Sodium Salt (BPNPP) (Sigma, Catalog #N3002)
Enzyme: 0.01 ng/μL Recombinant Human ENPP-2/Autotaxin (rhENPP-2) (R&D Catalog #5255-EN)
96-well clear assay plates
0 μM. […] PF8380 was used as a positive control for the assay. Data was analyzed using GraphPad Prism 8.0.

[3] = biological target: T1, Recombinant Human ENPP-1 Protein; assay type: binding; details: SYPRO Orange protein melt
Experimental: Recombinant Human ENPP-1 Protein (Purified In-House)
Assay Buffer (1 mM CaCl2, 0.2 mM ZnCl2, 50 mM Tris, pH 9.0)
5000×SYPRO Orange (ThermoFisher cat #S6651)
Each drug was prepared as a 1 Ox solution in the assay buffer and SYPRO Orange was diluted to 10× concentration in water. Wells were set up in duplicate in a 384-well PCR plate as follows: 14 μL assay buffer, 2 μL ENPP1 Inhibitor or DMSO, 2 μL (0.5 μg) ENPP1 protein. Each well was mixed and incubated on ice for 5 minutes. Post incubation, 2 μL of SYPRO Orange was mixed into each well and followed by a gentle centrifugation. The protein melt reaction was run using ViiA7 software with temperatures beginning at 25° C. and increasing by 0.05° C./s to the maximum temperature of 99° C.

COc1cc2ncc(C#N)c(N3CCCC(CCNS(N)(=O)=O)CC3)c2cc1OC (racemic) [Compound 038]
IC50 [1]: 0.94 nM

COc1cc2ncnc(N3CCCN(S(N)(=O)=O)CC3)c2cc1OC [Compound 015, 4-(6,7-dimethoxyquinazolin-4-yl)-1,4-diazepane-1-sulfonamide]
IC50 ([1]; read-out: IC50): 32.4 nM

COc1cc2ncnc(N3CCCN(S(N)(=O)=O)CC3)c2cc1OC.Cl [Compound 015-HCl, 4-(6,7-dimethoxyquinazolin-4-yl)-1,4-diazepane-1-sulfonamide hydrochloride salt]
IC50 ([1]; hydrochloride salt, read-out: IC50): 5.97 nM | IC50 [2]: > 1000 nM | Thermal Shift @10 uM (dTm (o C.)) [3]: $$$ ($$$ >3o C.)

COc1cc2ncnc(N3CCCN(S(N)(=O)=O)CC3)c2cc1OC [Compound 015-MES, 4-(6,7-dimethoxyquinazolin-4-yl)-1,4-diazepane-1-sulfonamide methanesulfonate]
IC50 ([1]; methanesulfonate, read-out: IC50): 6.38 nM

COc1cc2c(N3CCCN(S(N)(=O)=O)CC3)ncnc2cc1-c1cn[nH]c1 [Compound 020, 4-(6-methoxy-7-(1H-pyrazol-4-yl)quinazolin-4-yl)-1,4-diazepane-1-sulfonamide]
IC50 ([1]; read-out: IC50): 99.7 nM

COc1ccc2ncnc(N3CCCN(S(N)(=O)=O)CC3)c2c1 [Compound 022, 4-(6-methoxyquinazolin-4-yl)-1,4-diazepane-1-sulfonamide]
IC50 ([1]; read-out: IC50): 116 nM

COc1cc2ncnc(N3CC4CC(C3)N(S(N)(=O)=O)C4)c2cc1OC (stereo not shown) [Compound 026, 3-(6,7-dimethoxyquinazolin-4-yl)-3,6-diazabicyclo[3.2.1]octane-6-sulfonamide hydrochloride]
IC50 ([1]; read-out: IC50): 118 nM

COc1cc2ncnc(N3CCN(S(N)(=O)=O)CC(F)(F)C3)c2cc1OC [Compound 029, 4-(6,7-dimethoxyquinazolin-4-yl)-6,6-difluoro-1,4-diazepane-1-sulfonamide hydrochloride]
IC50 ([1]; read-out: IC50): 1.21 nM

COc1cc2ncc(C#N)c(N3CCCC(NS(N)(=O)=O)CC3)c2cc1OC (stereo not shown) [Compound 042, N-(1-(3-cyano-6,7-dimethoxyquinolin-4-yl)azepan-4-yl)sulfamoylamine]
IC50 ([1]; read-out: IC50): 40.5 nM

COc1cc2ncnc(-c3ccc(CNS(N)(=O)=O)nc3)c2cc1OC [Compound 047, N-((5-(6,7-dimethoxyquinazolin-4-yl)pyridin-2-yl)methyl) sulfamide]
IC50 [2]: > 1000 nM | Thermal Shift @10 uM (dTm (o C.)) [3]: $$ ($$ <3o C.)

COc1cc2ncnc(-c3ccc(NCCNS(N)(=O)=O)nc3)c2cc1OC.Cl [Compound 048]
IC50 [2]: > 1000 nM | Thermal Shift @10 uM (dTm (o C.)) [3]: $$ ($$ <3o C.)

COc1cc2ncnc(N3CCCC(CCNS(N)(=O)=O)CC3)c2cc1OC (stereo not shown) [Compound 049]
IC50 [2]: > 1000 nM | Thermal Shift @10 uM (dTm (o C.)) [3]: $$$ ($$$ >3o C.)

COc1cc2ncnc(CCCCCNS(N)(=O)=O)c2cc1OC [Compound 050]
IC50 [2]: > 1000 nM | Thermal Shift @10 uM (dTm (o C.)) [3]: $$ ($$ <3o C.)

COc1cc2ncnc(OCCCCNS(N)(=O)=O)c2cc1OC [Compound 053]
Thermal Shift @10 uM (dTm (o C.)) [3]: $$$ ($$$ >3o C.)

COc1cc2ncnc(OCCCCCNS(N)(=O)=O)c2cc1OC [Compound 054]
Thermal Shift @10 uM (dTm (o C.)) [3]: $$ ($$ <3o C.)

COc1cc2ncnc(NCCCNS(N)(=O)=O)c2cc1OC [Compound 055, N-(3-((6,7-dimethoxyquinazolin-4-yl)amino)propyl) sulfamide hydrochloride]
Thermal Shift @10 uM (dTm (o C.)) [3]: $$ ($$ <3o C.)

COc1cc2ncnc(NCCCCNS(N)(=O)=O)c2cc1OC [Compound 056]
IC50 [2]: > 1000 nM | Thermal Shift @10 uM (dTm (o C.)) [3]: $$ ($$ <3o C.)

COc1cc2ncnc(NCCCCCNS(N)(=O)=O)c2cc1OC [Compound 057]
Thermal Shift @10 uM (dTm (o C.)) [3]: $$ ($$ <3o C.)

COc1cc2ncnc(SCCCCNS(N)(=O)=O)c2cc1OC [Compound 058, N-(4-((6,7-dimethoxyquinazolin-4-yl)thio)butyl) sulfamide hydrochloride]
Thermal Shift @10 uM (dTm (o C.)) [3]: $$$ ($$$ >3o C.)

COc1cc2ncnc(N3CCCC(CCNS(N)(=O)=O)CC3)c2cc1OC (stereo not shown) [Compound 060, N-(2-(1-(6,7-dimethoxyquinazolin-4-yl)azepan-4-yl)ethyl)sulfamide]
Thermal Shift @10 uM (dTm (o C.)) [3]: $$$ ($$$ >3o C.)

COc1cc2ncnc(N(C)CCCCCNS(N)(=O)=O)c2cc1OC [Compound 061, N-(5-((6,7-dimethoxyquinazolin-4-yl) (methyl)amino)pentyl) sulfamide]
Thermal Shift @10 uM (dTm (o C.)) [3]: $$ ($$ <3o C.)

COc1cc2ncnc(N3CCCN(CCNS(N)(=O)=O)CC3)c2cc1OC [Compound 062]
IC50 [2]: > 1000 nM | Thermal Shift @10 uM (dTm (o C.)) [3]: $$ ($$ <3o C.)

COc1cc2ncnc(N3CCCN(CCNS(N)(=O)=O)CC3)c2cc1OC.Cl [Compound 063, (N-(2-(4-(6,7-dimethoxyquinazolin-4-yl)-1,4-diazepan-1-yl)ethyl)sulfamide hydrochloride]
IC50 ([1]; read-out: IC50): 68.1 nM

COc1cc2ncnc(N3CCCN(CCNS(N)(=O)=O)CC3)c2cc1OC.Cl [Compound 063]
Thermal Shift @10 uM (dTm (o C.)) [3]: $$ ($$ <3o C.)

COc1cc2ncnc(N3CCCN(C(=O)CNS(N)(=O)=O)CC3)c2cc1OC.Cl [Compound 064, (N-(2-(4-(6,7-dimethoxyquinazolin-4-yl)-1,4-diazepan-1-yl)-2-oxoethyl)sulfamide hydrochloride]
IC50 [1]: 72 nM

COc1cc2ncnc(N3CCCN(C(=O)CNS(N)(=O)=O)CC3)c2cc1OC.Cl [Compound 064]
Thermal Shift @10 uM (dTm (o C.)) [3]: $$ ($$ <3o C.)

COc1cc2ncnc(N3CCCN(C(=O)CNS(N)(=O)=O)CC3)c2cc1OC [Compound 065]
IC50 ([1]; read-out: IC50): 7.74 nM | IC50 [2]: > 1000 nM | Thermal Shift @10 uM (dTm (o C.)) [3]: $$$ ($$$ >3o C.)
